Publication PMC2828351 (Bioorganic & medicinal chemistry, 2009)

Tests used:
JNK = JNK (Homo sapiens, UniProt P45983); assay: LanthaScreen kinase activity assay; type: biochemical
GST-JNK1 = GST-JNK1 (Homo sapiens, UniProt P45983); assay: pepJIP1 DELFIA displacement assay; type: binding
p38α = p38α (Homo sapiens, UniProt Q16539); assay: Selectivity profile: p38α kinase; type: biochemical
Akt kinase = assay: Selectivity profile: Akt kinase; type: biochemical; conditions: for activity against Akt kinase: no significant inhibition at 100 μM
Furin = Furin (Homo sapiens, UniProt P09958); assay: Selectivity profile: furin protease; type: biochemical
lethal factor (LF) = lethal factor (LF) (Bacillus anthracis, UniProt P15917); assay: biochemical; type: biochemical
lethal factor (LF), sequence (P15917 34-809 limits assumed): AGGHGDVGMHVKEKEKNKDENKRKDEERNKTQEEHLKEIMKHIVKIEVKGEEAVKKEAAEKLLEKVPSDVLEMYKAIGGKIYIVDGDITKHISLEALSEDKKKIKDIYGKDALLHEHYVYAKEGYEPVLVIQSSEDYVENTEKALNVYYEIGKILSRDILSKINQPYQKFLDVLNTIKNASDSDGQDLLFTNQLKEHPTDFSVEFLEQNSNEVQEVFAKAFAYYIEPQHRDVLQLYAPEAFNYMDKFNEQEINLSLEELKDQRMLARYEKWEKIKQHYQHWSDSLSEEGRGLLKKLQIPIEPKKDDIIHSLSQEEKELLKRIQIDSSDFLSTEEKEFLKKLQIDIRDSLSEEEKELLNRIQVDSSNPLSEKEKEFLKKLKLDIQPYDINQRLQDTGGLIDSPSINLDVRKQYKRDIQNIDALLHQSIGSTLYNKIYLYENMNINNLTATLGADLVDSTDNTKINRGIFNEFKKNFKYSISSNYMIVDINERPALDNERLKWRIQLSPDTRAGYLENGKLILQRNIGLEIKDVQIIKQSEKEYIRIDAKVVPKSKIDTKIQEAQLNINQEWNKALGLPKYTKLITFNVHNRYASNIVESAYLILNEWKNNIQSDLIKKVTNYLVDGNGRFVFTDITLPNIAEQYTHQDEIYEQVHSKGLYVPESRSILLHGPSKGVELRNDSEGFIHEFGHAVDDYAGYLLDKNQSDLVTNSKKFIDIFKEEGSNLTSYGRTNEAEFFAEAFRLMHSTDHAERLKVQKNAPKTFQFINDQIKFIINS

JNK, sequence (P45983 whole entry): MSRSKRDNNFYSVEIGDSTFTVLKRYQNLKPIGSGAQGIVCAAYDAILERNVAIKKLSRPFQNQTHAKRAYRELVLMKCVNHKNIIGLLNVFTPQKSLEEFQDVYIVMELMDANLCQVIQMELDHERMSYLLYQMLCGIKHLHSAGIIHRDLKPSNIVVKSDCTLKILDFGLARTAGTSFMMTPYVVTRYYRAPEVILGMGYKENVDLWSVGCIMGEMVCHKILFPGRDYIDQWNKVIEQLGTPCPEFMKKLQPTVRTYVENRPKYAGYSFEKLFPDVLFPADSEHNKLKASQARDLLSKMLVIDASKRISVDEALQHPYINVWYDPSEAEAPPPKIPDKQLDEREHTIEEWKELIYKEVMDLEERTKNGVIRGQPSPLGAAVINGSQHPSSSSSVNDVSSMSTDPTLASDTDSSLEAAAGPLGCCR
GST-JNK1, sequence (P45983 whole entry): as above
Furin, sequence (P09958 108-794, species assumed): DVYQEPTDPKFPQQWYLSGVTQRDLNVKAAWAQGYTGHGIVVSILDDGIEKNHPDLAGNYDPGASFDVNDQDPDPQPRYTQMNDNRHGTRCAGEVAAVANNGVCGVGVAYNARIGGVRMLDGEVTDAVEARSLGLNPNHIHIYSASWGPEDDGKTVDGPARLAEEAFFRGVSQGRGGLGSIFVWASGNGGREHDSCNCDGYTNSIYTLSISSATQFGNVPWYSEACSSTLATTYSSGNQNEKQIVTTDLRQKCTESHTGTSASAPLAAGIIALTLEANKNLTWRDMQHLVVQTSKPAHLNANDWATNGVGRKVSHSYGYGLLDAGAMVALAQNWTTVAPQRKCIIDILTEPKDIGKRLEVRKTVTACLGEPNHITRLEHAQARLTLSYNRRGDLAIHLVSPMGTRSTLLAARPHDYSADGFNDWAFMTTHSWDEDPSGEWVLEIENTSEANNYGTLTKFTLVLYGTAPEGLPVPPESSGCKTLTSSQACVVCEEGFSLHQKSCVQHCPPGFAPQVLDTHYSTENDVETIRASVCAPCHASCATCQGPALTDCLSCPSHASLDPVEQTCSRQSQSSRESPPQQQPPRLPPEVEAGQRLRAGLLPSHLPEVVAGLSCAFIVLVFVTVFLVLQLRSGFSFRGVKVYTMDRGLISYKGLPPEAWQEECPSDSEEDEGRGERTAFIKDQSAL
p38α, sequence (Q16539 whole entry): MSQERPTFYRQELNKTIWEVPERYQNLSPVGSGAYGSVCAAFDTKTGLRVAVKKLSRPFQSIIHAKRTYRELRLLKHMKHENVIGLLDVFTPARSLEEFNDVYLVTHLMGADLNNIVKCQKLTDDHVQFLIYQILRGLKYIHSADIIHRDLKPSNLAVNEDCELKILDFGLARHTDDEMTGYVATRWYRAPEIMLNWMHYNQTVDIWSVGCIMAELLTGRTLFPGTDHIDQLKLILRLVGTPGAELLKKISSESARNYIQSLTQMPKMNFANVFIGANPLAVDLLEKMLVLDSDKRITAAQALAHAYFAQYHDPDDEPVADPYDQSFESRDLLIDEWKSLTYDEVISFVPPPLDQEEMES

| Compound | activity in kinase assay / JNK inhibition (JNK) | IC50 (GST-JNK1) | also measured |
| --- | --- | --- | --- |
| Nc1ncnc2[nH]c(SCc3ccc(C(=O)O)cc3)nc12 [BI-87C7] | none of these were good JNK inhibitors | > 100 µM | – |
| Nc1ncnc2nc(Sc3ncc([N+](=O)[O-])s3)[nH]c12 [BI-87C10] | none of these were good JNK inhibitors | < 1 µM | – |
| O=C(O)c1ccc(CSc2nc3ccccc3[nH]2)cc1 [BI-87D4] | – | > 100 µM | – |
| COc1ccc2sc(Sc3ncc([N+](=O)[O-])s3)nc2c1 [BI-87D11] | – | – | times less active against p38α (vs JNK) (p38α): at least 50 times; Akt, inhibition at 100 μM (Akt kinase): 5% inhibition at 100 μM; activity against Akt kinase (Akt kinase): inactive; activity against furin (Furin): inactive; IC50 (lethal factor (LF)): > 100 µM; activity against lethal factor (lethal factor (LF)): inactive |
| O=[N+]([O-])c1cnc(Sc2nc3cc(Cl)ccc3s2)s1 [BI-87F2] | inactive | – | – |
| Cn1c(Sc2ncc([N+](=O)[O-])s2)nc2ccccc21 [BI-87F7] | no activity | – | – |
| O=[N+]([O-])c1cnc(Sc2nc3ccc(Cl)cc3s2)s1 [BI-87F8] | inactive | – | – |
| Cn1c(Sc2nc3ccc(Cl)cc3s2)nnc1-c1cccs1 [BI-87F11] | – | > 100 µM | – |
| Cn1c(Sc2nc3ccc(Cl)cc3s2)nnc1-c1ccc2ncccc2c1 [BI-87F12] | – | > 100 µM | – |
| CCOc1ccc2nc(Sc3ncc([N+](=O)[O-])s3)sc2c1 [BI-87G2] | inactive | > 100 µM | – |
| O=[N+]([O-])c1cnc(Sc2nc3ccccc3s2)s1 [BI-87G3, 2-(5-nitrothiazol-2-ylthio)benzo[d]thiazole] | – | – | times less active against p38α (vs JNK) (p38α): at least 50 times; Akt, inhibition at 100 μM (Akt kinase): 2% inhibition at 100 μM; activity against Akt kinase (Akt kinase): inactive; activity against furin (Furin): inactive; IC50 (lethal factor (LF)): > 100 µM; activity against lethal factor (lethal factor (LF)): inactive |
| Cn1c(Sc2nc3ccc(Cl)cc3s2)nnc1-c1ccc(Cl)cc1Cl [BI-87G12] | – | > 100 µM | – |
| O=[N+]([O-])c1cnc(Sc2nc3cc(S(=O)(=O)O)ccc3[nH]2)s1 [BI-87H1] | – | > 100 µM | – |
